Where “and” joins values, the source holds several entries; their conditions need not be identical. Equal entries are not always repeated.

One experiment has as its system human lice. Briefly: In vivo lice repellency on rabbits of shampoo and conditioner. More on the design: species or system human lice (on rabbits). As to conditions: for % Repellency (Mean Values): Table 5; for Number of Lice (Out of 40) Found in the Treated Area: three experiments, listed as D.M.P. As to the method:
(§1) Body lice were reared in the laboratory by feeding them every 48 hours on rabbits. Lice were placed on the shaved abdomen of a white rabbit and left until they fed to satiety. Outside the host the lice were maintained at a temperature of 30 ±1° C., and relative humidity of 70±10%.
The abdomen of a New Zealand white rabbit was shaved and 100 μl of the test substance was evenly distributed over an area 2.5×5 cm. A glass cylinder 5 cm high with an internal diameter of 3.5 cm was placed on the rabbit's abdomen so that one half of it was covering the treated area and the other half the adjacent untreated area. 40 human body lice (Pediculus humanus humanus) (20 adults and 20 nymphs) which had been fed 24 hours previously were placed in the middle of the cylinder between the treated and untreated area, and the cylinder was covered with a dark cloth in order to keep the test area in the dark. The lice remained on the body of the rabbit for 5 minutes during which time over 95% of them had started feeding. The number of lice found on the treated area was then recorded and the specimen was photographed. Room temperature during the test was 20±3° C. For comparison to the tested samples, two controls were also tested: 70% Ethanol (Frutarom, C. P.) and 33% Dimethyl Phthalate (in 70% Ethanol). […]
The efficacy of a shampoo and a hair-conditioner, aimed at repellency of human lice was examined in an in vivo procedure on rabbits. Each experiment included a terpenoid containing product and four controls: 70% Ethanol, Dimethyl phthalate, placebo shampoo and placebo conditioner. All experiments were repeated three times, and the results were consistent, as shown by Table 4.
(§2) % Repellency was calculated according to equation 1.
(§3) According to Equation 1, when lice are evenly distributed between the treated and untreated areas (n=1/2 A), % Repellency=0, and when no lice are left in the treated area (n=0), % Repellency=100.

Experiment [1] deals with human body lice. Briefly: In vivo test of lice repellency on rabbits (spray, gel, de cologne). Also noted: species or system Pediculus humanus humanus (on New Zealand white rabbits). As to conditions: 7 hours.
In experiment [2] the test system is human body lice. The description is as above. Also noted: species or system Pediculus humanus humanus (on New Zealand white rabbits). The conditions noted are these: for % Repellency (Mean Values): Table 3; for Number of Lice (Out of 40) Found in the Treated Area: single experiments (a), (b), (c), listed as D.M.P. On the procedure:
as §1
The abdomen of a New Zealand white rabbit was shaved and 100 μl of the test substance was evenly distributed over an area 2.5×5 cm. A glass cylinder 5 cm high with an internal diameter of 3.5 cm was placed on the rabbit's abdomen so that one half of it was covering the treated area and the other half the adjacent untreated area. 40 human body lice (Pediculus humanus humanus) (20 adults and 20 nymphs) which had been fed 24 hours previously were placed in the middle of the cylinder between the treated and untreated area, and the cylinder was covered with a dark cloth in order to keep the test area in the dark. The lice remained on the body of the rabbit for 5 minutes during which time over 95% of them had started feeding. The number of lice found on the treated area was then recorded and the specimen was photographed. Room temperature during the test was 20±3° C. For comparison to the tested samples, two controls were also tested: 70% Ethanol (Frutarom, C. P.) and 33% Dimethyl Phthalate (in 70% Ethanol).
The products were topically applied as a spray, lotion or gel on human hair and skin, to repel lice. The above procedure was carried out 1, 3, 5, and 24 hours after application of a test substance. Each substance was tested three times on three different rabbits on three different occasions.
as §2
Where: A = Total Number of lice
n = Mean number of lice found in the treated area
as §3

The test system of another experiment is mosquito. As to conditions: Hwang et al. 1985; Ruledge 1988; cited from earlier work.
The subject of the next experiment is lice. Put plainly: Standard in vitro test on filter paper (petri-dish lice repellency). The conditions noted are these: 10 min, 20±3° C. As to the method:
Screening tests were performed on many substances of the following groups: terpenes (hydrocarbons), terpenoid alcohols, terpenoid esters, terpenoid aldehydes and ketones, essential oils which contain terpenoids and perfumes which contain terpenoids, as well as various general insect repellents, for lice-repellency. Each experiment included exposure of the lice to different concentrations of the tested substance, and measuring the dose response of those materials.
A petri-dish method was used to examine the repellency of the solutions for lice. A filter paper (Whatman No. 4, 5.5 cm in diameter) was secured in a petri-dish. A 100 μl portion of the test solution was placed on a corduroy patch (1.5 cm^2). The material was allowed to dry for 30 min. at room temperature (20±3° C.) and the patch was placed at the periphery of the petri-dish. A patch treated with a control solution (96% Ethanol) was placed on the opposite side of the dish. Twenty female lice which had been fed 24 hours previously were placed in the middle of the dish. A box was placed over the dish and it was covered with a dark cloth in order to keep the test area in the dark. The experiment was carried out at room temperature (20°±3° C.) and lasted 10 min. The number of lice on the treated and controlled patches as well as on the area between the patches was recorded in a protocol. The experiment was repeated three times for each sample.
% repellency was calculated by the following formula:
where: T=number of lice on the treated patch
C=number of lice on the untreated patch
The following terms were recorded:
RC80 =Concentration giving 80% repellency.
RC50 =Concentration giving 50% repellency.
RD80 =mg/cm^2 giving 80% repellency.
RD50 =mg/cm^2 giving 50% repellency.

With `COC(=O)c1ccccc1C(=O)OC` [Dimethyl Phthalate], the “% Repellency (Mean Values)” value in the experiment on human lice (1 hour) came out at 20%; in the experiment with human lice (3 hours), 10%; in the experiment on human lice (5 hours), 20%; in the experiment with human lice (7 hours), 26%; with human body lice [1] (Table 3), 26%; in the experiment on human body lice [2] (1 hour), 20%. Also, the “% Repellency (Mean Values)” value in the experiment on human body lice [2] (3 hours) is 10%; with human body lice [2] (5 hours) it was 20%. Besides, the “Number of Lice (Out of 40) Found in the Treated Area” value was 21 and 12 and 15 in the experiment on human lice (1 hour); 16 and 18 and 20 in the experiment with human lice (3 hours); 16 and 14 and 18 with human lice (4 hours); 18 and 14 and 12 with human lice (7 hours); 18 and 14 and 12 in the experiment on human body lice [1] (single experiments (a), (b), (c), listed as D.M.P.); 21 and 12 and 15 with human body lice [2] (1 hour). Also, the “Number of Lice (Out of 40) Found in the Treated Area” value in the experiment on human body lice [2] (3 hours) was 16 and 18 and 20; with human body lice [2] (5 hours), 16 and 14 and 18. In addition, the “lice repellency in vivo, in words” value in the experiment with human body lice [2] (rabbit, in vivo) was “poor results”. Moreover, the “repellency against lice over the duration stated” value in the experiment with human body lice [2] (range over at least 5 or 7 hours) is given as 10-25%.
Consider `CC1=CCC(C(C)(C)O)CC1` (stereo not drawn) [α-TERPINEOL, α-terpineol], for which the “mosquito repellency, in words” value with mosquito is “useful in mosquito repellent”. For the same compound, in the experiment with lice, the “RC50 (Concentration giving 50% repellency)” value is reported as 0.040%, the “RC80 (Concentration giving 80% repellency)” value was 0.080% and the “RD80 (mg/cm^2 giving 80% repellency)” value was found to be 0.056 mg/cm^2.
